One experiment concerns the target T1, FLT-3 kinase (Homo sapiens, UniProt P36888).
T1 construct: human FLT-3 (Arg571-Ser993); GST (N); purchased Cell Signaling Technology HTScan FLT-3 Kinase Assay Kit; host or cells: baculovirus expression system
T1 sequence (P36888 571-993): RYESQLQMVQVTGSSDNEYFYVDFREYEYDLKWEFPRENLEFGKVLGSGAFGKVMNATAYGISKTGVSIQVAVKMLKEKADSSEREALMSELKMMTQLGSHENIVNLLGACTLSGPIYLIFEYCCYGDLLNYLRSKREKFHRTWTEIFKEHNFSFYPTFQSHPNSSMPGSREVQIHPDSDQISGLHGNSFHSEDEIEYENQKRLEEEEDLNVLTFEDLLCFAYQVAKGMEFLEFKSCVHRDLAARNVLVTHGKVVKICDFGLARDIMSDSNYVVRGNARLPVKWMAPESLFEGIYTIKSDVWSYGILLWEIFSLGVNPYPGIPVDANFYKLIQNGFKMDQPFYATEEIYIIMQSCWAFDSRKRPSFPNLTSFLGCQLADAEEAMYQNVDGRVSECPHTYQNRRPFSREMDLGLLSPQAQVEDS
As to the kind of experiment: FLT-3 kinase DELFIA assay (HTScan FLT-3 Kinase Assay Kit). In kind it is biochemical. The settings on record: 20 uM ATP; for inhibition at 0.1 µM: 0.1 uM compound; for inhibition at 1 µM: 1 uM compound. As to the method: Azaazulene Compounds of this invention were treated for their efficacy in inhibiting activities of FLT-3, c-KIT and KDR kinases by biochemical DELFIA (Dissociation Enhanced Lanthanide FIA) assays according to the procedure described below. The assays were conducted by, Division of Cell Engineering, Biomedical Engineering Research Laboratories, Industrial Technology Research Institute, Bldg. 53, 195, sec. 4, Chung Hsing Rd. Chutung, Hsinchu, Taiwan 310, R.O.C.
The FLT-3 assay was conducted following the protocol described in Protocol for HTScang FLT-3 Kinase Assay Kit (Cell Signaling Technology®).

In experiment [1] the test system is MV4-11 (FLT3-ITD) cell line. As to the kind of experiment: In vitro cell activity assay (MTT cell viability, 72 hours). As to conditions: Homo sapiens, 72 hours at 37° C., 10,000 cells per well, read-out: IC50 against MV4-11. Format: cell-based. As to the method:
Human MV4-11 (FLT3-ITD) cell line was obtained from American Tissue Culture Collection (ATCC number: CRL-9591). The cell line was cultured with RPMI 1640 containing 10% fetal bovine serum, 1 mmol/L sodium pyruvate and 10 mmol/L HEPES (pH 7.4). The cell was grown and maintained in a humidified atmosphere at 37° C. and 5% carbon dioxide.
MV4-11 cell was plated in 96-well microtiter plates (10,000 cells per well) and serial dilutions of indicated compounds were added. At the end of the incubation period (72 hours at 37° C.), cell viability was determined by a tetrazolium dye, MTT (3-(4,5-dimethylthiazol-2-yl)-2,5-diphenyl tetrazolium bromide) (Promega, Madison, Wis.). The formazan crystals were dissolved by DMSO, and the absorbance at a wavelength of 600 nm was recorded using an ELISA plate reader. IC50 values were calculated using nonlinear regression and defined as the concentration needed for a 50% reduction in absorbance of treated versus untreated control cells.

The source of these data is patent US8492374B2, “Azaazulene compounds” (Industrial Technology Research Institute, priority 2009, dated 2013).

Regarding `CN1CCN(c2ccc3[nH]c(-c4c5cccccc-5[nH]c4=O)nc3c2F)CC1` [Compound B51], on FLT-3 kinase, the inhibition (commonly the relative decrease from the control value, in per cent) at 0.1 µM came out at 20.6% and 1 µM produced 66.6% inhibition. Further, the IC50 (as a rule, the concentration at which inhibition is half-maximal) in experiment [1] was 99.1 nM.

At FLT-3 kinase, `CN1CCN(c2c(F)cc3[nH]c(-c4c5cccccc-5[nH]c4=O)nc3c2F)CC1` [Compound B52] came in with an inhibition at 0.1 µM of 20.3% and an inhibition at 1 µM of 42.5%. Moreover, the IC50 in experiment [1] is 635 nM.

On to `O=CN1CCN(c2ccc3[nH]c(-c4c5cccccc-5[nH]c4=O)nc3c2)CC1` [Compound B54], for which, on FLT-3 kinase, the inhibition at 0.1 µM was 46% and the inhibition at 1 µM worked out at 91.6%. In addition, the IC50 in experiment [1] was 74 nM.

As for `O=C(Nc1ccccc1)N1CCN(c2ccc3[nH]c(-c4c5cccccc-5[nH]c4=O)nc3c2)CC1` [Compound B55], at FLT-3 kinase, the inhibition at 0.1 µM worked out at 45.2% and the inhibition at 1 µM is 93.2%. The IC50 in experiment [1] turned out to be 93.8 nM.

At FLT-3 kinase, `CS(=O)(=O)N1CCN(c2ccc3[nH]c(-c4c5cccccc-5[nH]c4=O)nc3c2)CC1` [Compound B57] had an inhibition at 0.1 µM of 29.5% and an inhibition at 1 µM of 81.5%. In addition, in experiment [1], the IC50 was 104 nM.

At FLT-3 kinase, `O=c1[nH]c2cccccc-2c1-c1nc2cc(N3CCN(S(=O)(=O)CCCl)CC3)ccc2[nH]1` [Compound B58] registered an inhibition at 0.1 µM of 35.7% and an inhibition at 1 µM of 83.8%. The IC50 in experiment [1] worked out at 67.2 nM.

On FLT-3 kinase, `O=Cc1ccc(N2CCN(c3ccc4[nH]c(-c5c6cccccc-6[nH]c5=O)nc4c3)CC2)o1` [Compound B59] yielded an inhibition at 0.1 µM of 55.6% and an inhibition at 1 µM of 96.1%. Moreover, the half-maximal inhibitory concentration (IC50) in experiment [1] is 146 nM.

At FLT-3 kinase, `O=c1[nH]c2cccccc-2c1-c1nc2cc(N3CCN(c4ccncc4)CC3)ccc2[nH]1` [Compound B60] gave an inhibition at 0.1 µM of 71.7% and an inhibition at 1 µM of 99.1%. Further, the IC50 in experiment [1] was found to be 5.9 nM.

As for `O=c1[nH]c2cccccc-2c1-c1nc2cc(N3CCN(c4c(F)cncc4F)CC3)ccc2[nH]1` [Compound B61], on FLT-3 kinase, 0.1 µM produced 17.7% inhibition and the inhibition at 1 µM came out at 74.3%. Further, the 50% inhibitory concentration (IC50) in experiment [1] stood at 270 nM.

On FLT-3 kinase, `Nc1cc(N2CCN(c3ccc4[nH]c(-c5c6cccccc-6[nH]c5=O)nc4c3)CC2)ccn1` [Compound B62] yielded an inhibition at 0.1 µM of 9.5% and an inhibition at 1 µM of 13.7%. The 50% inhibitory concentration (IC50) in experiment [1] was greater than 5000 nM.

At FLT-3 kinase, `O=c1[nH]c2cccccc-2c1-c1nc2cc(N3CCN(c4cccnc4)CC3)ccc2[nH]1` [Compound B63] returned an inhibition at 0.1 µM of 18.9% and an inhibition at 1 µM of 33.4%. Moreover, the IC50 in experiment [1] was found to be 473 nM.

Turning to `O=c1[nH]c2cccccc-2c1-c1nc2cc(N3CCN(c4ccccn4)CC3)ccc2[nH]1` [Compound B64], at FLT-3 kinase, the inhibition at 0.1 µM was found to be 29.5% and testing at 1 µM gave an inhibition of 79.2%. Also, the IC50 in experiment [1] was 250 nM.

At FLT-3 kinase, `O=c1[nH]c2cccccc-2c1-c1nc2cc(N3CCN(c4ncccc4[N+](=O)[O-])CC3)ccc2[nH]1` [Compound B65] displayed an inhibition at 0.1 µM of 16.3% and an inhibition at 1 µM of 60.5%. Besides, the concentration for half-maximal inhibition (IC50) in experiment [1] was determined as 278 nM.

As to `O=c1[nH]c2cccccc-2c1-c1nc2cc(N3CCN(c4ncccc4Cl)CC3)ccc2[nH]1` [Compound B66], on FLT-3 kinase, testing at 0.1 µM gave an inhibition of 20.3% and testing at 1 µM gave an inhibition of 55.5%. The IC50 in experiment [1] was found to be 466 nM.

Regarding `Cc1cc(N2CCN(c3ccc4[nH]c(-c5c6cccccc-6[nH]c5=O)nc4c3)CC2)nc(N(C)C)n1` [Compound B67], at FLT-3 kinase, the inhibition at 0.1 µM was found to be 43.3% and 1 µM produced 95.3% inhibition. Moreover, in experiment [1], the IC50 came out at 77.8 nM.

At FLT-3 kinase, `O=c1[nH]c2cccccc-2c1-c1nc2cc(N3CCN(c4ncccn4)CC3)ccc2[nH]1` [Compound B68] gave an inhibition at 0.1 µM of 39.1% and an inhibition at 1 µM of 80.7%. Besides, in experiment [1], the IC50 was 234 nM.

At FLT-3 kinase, `O=c1[nH]c2cccccc-2c1-c1nc2cc(N3CCN(c4cnccn4)CC3)ccc2[nH]1` [Compound B69] had an inhibition at 0.1 µM of 29.3% and an inhibition at 1 µM of 77.3%. Further, the IC50 in experiment [1] was in the range of 100 to 500 nM.

Turning to `CN1CCN(C(=O)c2ccc3[nH]c(-c4c5cccccc-5[nH]c4=O)nc3c2)CC1` [Compound B71], on FLT-3 kinase, the inhibition at 0.1 µM came to 6.8% and at 1 µM the inhibition was 39.3%. In addition, in experiment [1], the concentration for half-maximal inhibition (IC50) is 957 nM.

On FLT-3 kinase, `O=C(c1ccc2[nH]c(-c3c4cccccc-4[nH]c3=O)nc2c1)N1CCN(c2ccncc2)CC1` [Compound B72] gave an inhibition at 0.1 µM of 36.8% and an inhibition at 1 µM of 85.5%. In experiment [1], the IC50 lay in the range of 50 to 100 nM.

On to `O=C(Nc1ccc(N2CCCC2)cn1)c1ccc2[nH]c(-c3c4cccccc-4[nH]c3=O)nc2c1` [Compound B73], for which, on FLT-3 kinase, testing at 0.1 µM gave an inhibition of 23.7% and the inhibition at 1 µM was 22.3%. For the same compound, the IC50 in experiment [1] was roughly 1000 nM.

Consider `CN1CCCN(C(=O)c2ccc3[nH]c(-c4c5cccccc-5[nH]c4=O)nc3c2)CC1` [Compound B74], for which, on FLT-3 kinase, at 0.1 µM the inhibition was 27.1% and the inhibition at 1 µM stood at 64%. In addition, in experiment [1], the IC50 worked out at 163 nM.

On FLT-3 kinase, `O=C(Nc1ccc2[nH]c(-c3c4cccccc-4[nH]c3=O)nc2c1)c1ccncc1` [Compound B75] registered an inhibition at 0.1 µM of 13.4% and an inhibition at 1 µM of 37.1%. In addition, the IC50 in experiment [1] is roughly 1000 nM.

At FLT-3 kinase, `O=c1[nH]c2cccccc-2c1-c1nc2cc(N3CCCNCC3)ccc2[nH]1` [Compound B76] gave an inhibition at 0.1 µM of 50% and an inhibition at 1 µM of 92.9%. Moreover, the IC50 in experiment [1] was 25.6 nM.

At FLT-3 kinase, `CN1CCCN(c2ccc3[nH]c(-c4c5cccccc-5[nH]c4=O)nc3c2)CC1` [Compound B77] displayed an inhibition at 0.1 µM of 47.1% and an inhibition at 1 µM of 94.3%. Besides, in experiment [1], the IC50 came to 39.2 nM.

Consider `O=c1[nH]c2cccccc-2c1-c1nc2cc(N3CCCN(CCF)CC3)ccc2n1CCF` [Compound B78], for which, at FLT-3 kinase, the inhibition at 0.1 µM was found to be 20.3% and the inhibition at 1 µM was found to be 39.4%. For the same compound, in experiment [1], the IC50 lay within 100 to 500 nM.

At FLT-3 kinase, `O=c1[nH]c2cccccc-2c1-c1nc2cc(N3CCCNCC3)ccc2n1CCF` [Compound B79] came in with an inhibition at 0.1 µM of 22.3% and an inhibition at 1 µM of 36.6%. The 50% inhibitory concentration (IC50) in experiment [1] amounted to 346 nM.

Regarding `CN1CCCN(c2cc3nc(-c4c5cccccc-5[nH]c4=O)[nH]c3cc2F)CC1` [Compound B85], on FLT-3 kinase, the inhibition at 0.1 µM is 44.4% and the inhibition at 1 µM stood at 89.8%. The IC50 in experiment [1] worked out at 131 nM.

Consider `O=C(O)CCC(=O)N1CCCN(c2ccc3[nH]c(-c4c5cccccc-5[nH]c4=O)nc3c2)CC1` [Compound B89], for which, at FLT-3 kinase, the inhibition at 0.1 µM is 20% and 1 µM produced 56.7% inhibition. Besides, the IC50 in experiment [1] was greater than 5000 nM.

Consider `CS(=O)(=O)N1CCCN(c2ccc3[nH]c(-c4c5cccccc-5[nH]c4=O)nc3c2)CC1` [Compound B90], for which, on FLT-3 kinase, 0.1 µM produced 23% inhibition and at 1 µM the inhibition was 59.2%. The half-maximal inhibitory concentration (IC50) in experiment [1] came to 504 nM.

Consider `CN(C)S(=O)(=O)N1CCCN(c2ccc3[nH]c(-c4c5cccccc-5[nH]c4=O)nc3c2)CC1` [Compound B91], for which, on FLT-3 kinase, the inhibition at 0.1 µM was determined as 14.3% and the inhibition at 1 µM was found to be 42.5%. For the same compound, the IC50 in experiment [1] stood at 876 nM.

In the case of `O=C(c1ccc2[nH]c(-c3c4cccccc-4[nH]c3=O)nc2c1)N1CCCN(c2ccncc2)CC1` [Compound B92], at FLT-3 kinase, at 0.1 µM the inhibition was 17.9% and the inhibition at 1 µM amounted to 51.4%. The IC50 in experiment [1] amounted to 910 nM.
